pIC50: −log10 of the molar value. Like-named read-outs stand apart in the source and are kept apart here.
Legend:
[1] = test system: blood platelets (platelet rich, citrated, human blood plasma); experiment: inhibition of platelet aggregation in platelet rich, citrated human blood plasma (aggregometer), agonist ADP or collagen; assay type: cell-based; details: for pIC50: agonist COLLAGEN (2 μg), read-out: ID50 (the source's name)
Excerpt: (§1) Various substances are known to cause blood platelets to aggregate which in turn can result in blood clots in the blood circulatory system of living animals. Certain other compounds are known to prevent blood platelet aggregation and accordingly are known as antithrombotic agents, while other compounds prevent clotting of aggregated platelets and are called anticoagulants. Both are used in the treatment of phlebitis, stroke, coronary thrombosis, and arteriosclerosis. In a typical test to determine antithrombotic activity, the suspected antithrombotic substance is mixed with a suspension of blood platelets, incubated for a few minutes, and then the suspension is treated with a known amount of a known agonist (agents inducing aggregation). The effectiveness of the suspected antithrombotic is compared to a control which has been treated with the agonist but which has not been treated with the antithrombotic and a quantitative measure of effectiveness is determined by ascertaining the concentration of suspected antithromobotic necessary to reduce by 50% the extent of platelet aggregation compared to the control. This measurement is termed the ID50 of the antithrombotic. Typical agonists include collagen and ADP (adenosine diphosphate).
Platelet rich, citrated, human blood plasma (250,000 platelets/μL) was prepared and divided into 0.45 ml aliquots for use in determining ID50 levels of the subject compounds. The aliquots were treated with various quantities of the compounds of the instant invention and thereafter were preincubated by maintaining in an aggregometer curvette for two (2) minutes at 37° C. with stirring (950 RPM). Control aliquots free of antithrombotic component, were maintained and subjected to each of the processing steps. Each aliquot was then treated with an agonist in this instance being an appropriate amount of ADP (10 μmole) or collagen (2 μg). Aggregation in each aliquot was monitored for a period of 3-5 minutes and percent aggregation was quantified by a dual channel aggregometer which ascertained percent aggregation by comparision against a control of light transmittance through the sample.

[2] = test system: blood platelets (platelet rich, citrated, human blood plasma); experiment: as above; assay type: cell-based; details: for pIC50: agonist ADP (10 μg), read-out: ID50 (the source's name)
S. Aureus bacteria = experiment: antibacterial activity against S. Aureus; assay type: cell-based
blood platelets = experiment: antithrombotic activity in combination with other known antithrombotics
Excerpt: as §1

Work on `C=CCSSCCC[S+]([O-])CC=C` (stereo not shown) [Aliquot 3] yielded a pIC50 ([1]; Homo sapiens, Platelet) of under 3.40 and a pIC50 ([2]; Homo sapiens, Platelet) of under 3.40.

With `C=CCSS/C=C/C[S+](C)[O-]` (stereo not shown) [Aliquot 4] the pIC50 ([1]; Homo sapiens, Platelet) was 3.43 and the pIC50 ([2]; Homo sapiens, Platelet) was under 3.40.

`CSS/C=C/C[S+](C)[O-]` (stereo not shown) [Aliquot 5, (E) 2,3,7-trithiaocta-4-ene 7-oxide] gave a pIC50 ([1]; Homo sapiens, Platelet) of 3.48 and a pIC50 ([2]; Homo sapiens, Platelet) of under 3.40.

In the case of `C=CCS(=O)(=O)C/C=C/SS(=O)(=O)CC=C` [Aliquot 8, (E) 4,5,9-trithiadodeca-1,6,11-triene 4,4,9,9-tetraoxide], the “effect on platelet aggregation” value ([2]; at levels of 40 μg/ml of ADP) was “appears to act as an agonist”.

In the case of `C=CCS(=O)(=O)C/C=C/SS(=O)(=O)CC=C` [Aliquot 8], the “ID50 columns: result in words” value ([1]; printed across the ADP (10 μg) and COLLAGEN (2 μg) columns) was “Causes Aggregation”.

In the case of `C=CCSS/C=C/C[S+]([O-])CCCC(=O)OCC` (stereo not shown) [Aliquot 9], the pIC50 ([1]; Homo sapiens, Platelet) was 3.41 and the pIC50 ([2]; Homo sapiens, Platelet) was 3.41.

`C=CCS(=O)(=O)C/C=C/SSCCC` [Aliquot 10] gave a pIC50 ([2]; Homo sapiens, Platelet) of 3.68.

`C=CCS(=O)(=O)C/C=C/SSC/C=C/C` [Aliquot 11] was tested, and the pIC50 ([2]; Homo sapiens, Platelet) was 3.68.

`C=CCS(=O)(=O)C/C=C/SSCc1ccccc1` [Aliquot 12] gave a pIC50 ([2]; Homo sapiens, Platelet) of 3.69.

In the case of `C=CCS(=O)(=O)C/C=C/SSC/C=C\CCC` [Aliquot 13], the pIC50 ([2]; Homo sapiens, Platelet) was 3.55.

`C=CCS(=O)(=O)C/C=C/SSC/C=C/CCC` [Aliquot 14] showed a pIC50 ([2]; Homo sapiens, Platelet) of under 3.40.

In the case of `C=CC[S+]([O-])CC=CSS(=O)(=O)CC=C` (stereo not shown) [Example 5, (E,Z)-4,5,9-trithiadodeca-1,6,11-triene 4,4,9-trioxide], the “growth of S. Aureus bacteria” value (S. Aureus bacteria; 0.25 m. molar concentration) was “growth of the bacteria was inhibited” and the “killing of S. Aureus bacteria” value (S. Aureus bacteria; 1.0 m. molar concentration) was “killing of the bacteria”.

With `COc1ccc2c(c1)c(CC(=O)O)c(C)n2C(=O)c1ccc(Cl)cc1` [Indomethacin, indomethacin] the “antithrombotic activity when combined with various compounds of the invention” value (blood platelets) was “particularly enhanced antithrombotic activity”.

With `CCCCC[C@H](O)/C=C/[C@@H]1[C@H]2C/C(=C/CCCC(=O)O)O[C@H]2C[C@H]1O` [prostacyclin] the “antithrombotic activity when combined with various compounds of the invention” value (blood platelets) was “particularly enhanced antithrombotic activity”.

In the case of “(E)-4,5,9-trithiadodeca-6,11-diene 9,9 dioxide [Aliquot 10]”, the pIC50 [2] was 3.74.

“(E,Z)-4,5,9-trithiadodeca-1,6,11-triene 9,9dioxide [Example 2]” showed a pIC50 [1] of 3.67 and a pIC50 [2] of 3.68.
